Tests used:
Details in all cases: 72 h
[1] = system: Vero E6; assay: cell viability relative to DMSO; higher = less toxic
[2] = system: Calu-3; assay: as above
[3] = system: U2OS; assay: as above
[4] = system: Caco-2; assay: as above
[5] = system: HepG2; assay: as above
[6] = system: Vero E6; assay: relative viability EC50 (midpoint between 100% and the lowest measured viability); higher = less toxic
[7] = system: Calu-3; assay: as above
[8] = system: U2OS; assay: as above
[9] = system: Caco-2; assay: as above
[10] = system: HepG2; assay: as above
[11] = system: Vero E6; assay: drug sensitivity score (DSS) for viability; higher = more toxic; extreme values may be limits of the assay
[12] = system: Calu-3; assay: as above
[13] = system: U2OS; assay: as above
[14] = system: Caco-2; assay: as above
[15] = system: HepG2; assay: as above

Compound: CC(C)(Cc1c[nH]c2ccc(Cl)cc12)NCCOc1ccccc1OCC1CC1
- cell viability ([1]; 1 nM): 93.9%
- cell viability ([1]; 10 nM): 98%
- cell viability ([1]; 100 nM): 93.4%
- cell viability ([1]; 1000 nM): 99.4%
- cell viability ([1]; 10000 nM): 24.4%
- cell viability ([2]; 1 nM): 91.4%
- cell viability ([2]; 10 nM): 98.1%
- cell viability ([2]; 100 nM): 103%
- cell viability ([2]; 1000 nM): 97.4%
- cell viability ([2]; 10000 nM): 0.9%
- cell viability ([3]; 1 nM): 102%
- cell viability ([3]; 10 nM): 102%
- cell viability ([3]; 100 nM): 102%
- cell viability ([3]; 1000 nM): 97.3%
- cell viability ([3]; 10000 nM): 1.5%
- cell viability ([4]; 1 nM): 104%
- cell viability ([4]; 10 nM): 108%
- cell viability ([4]; 100 nM): 88.6%
- cell viability ([4]; 1000 nM): 103%
- cell viability ([4]; 10000 nM): 3.5%
- cell viability ([5]; 1 nM): 98.1%
- cell viability ([5]; 10 nM): 98.7%
- cell viability ([5]; 100 nM): 99.3%
- cell viability ([5]; 1000 nM): 89.3%
- cell viability ([5]; 10000 nM): -0.3%
- relative viability EC50 [6]: 3.11 µM
- relative viability EC50 [7]: 2.98 µM
- relative viability EC50 [8]: 2.97 µM
- relative viability EC50 [9]: 3.33 µM
- relative viability EC50 [10]: 2.28 µM
- drug sensitivity score [11]: 4.3
- drug sensitivity score [12]: 5.9
- drug sensitivity score [13]: 5.8
- drug sensitivity score [14]: 5.1
- drug sensitivity score [15]: 7.3

Compound: CC(=O)[C@@]1(O)CC[C@H]2[C@@H]3C[C@H](C)C4=CC(=O)C=C[C@]4(C)[C@@]3(F)[C@@H](O)C[C@@]21C [fluorometholone]
- cell viability ([1]; 1 nM): 105%
- cell viability ([1]; 10 nM): 101%
- cell viability ([1]; 100 nM): 102%
- cell viability ([1]; 1000 nM): 97.5%
- cell viability ([1]; 10000 nM): 101%
- cell viability ([2]; 1 nM): 93.2%
- cell viability ([2]; 10 nM): 98.3%
- cell viability ([2]; 100 nM): 94.1%
- cell viability ([2]; 1000 nM): 92.5%
- cell viability ([2]; 10000 nM): 87.9%
- cell viability ([3]; 1 nM): 96.4%
- cell viability ([3]; 10 nM): 97.9%
- cell viability ([3]; 100 nM): 91.1%
- cell viability ([3]; 1000 nM): 97%
- cell viability ([3]; 10000 nM): 92.3%
- cell viability ([4]; 1 nM): 94.1%
- cell viability ([4]; 10 nM): 96.2%
- cell viability ([4]; 100 nM): 96.4%
- cell viability ([4]; 1000 nM): 99.7%
- cell viability ([4]; 10000 nM): 124%
- cell viability ([5]; 1 nM): 96.3%
- cell viability ([5]; 10 nM): 96.7%
- cell viability ([5]; 100 nM): 101%
- cell viability ([5]; 1000 nM): 90.8%
- cell viability ([5]; 10000 nM): 96.9%
- relative viability EC50 [6]: > 10 µM
- relative viability EC50 [7]: > 10 µM
- relative viability EC50 [8]: > 10 µM
- relative viability EC50 [9]: > 10 µM
- relative viability EC50 [10]: > 10 µM
- drug sensitivity score [11]: 0
- drug sensitivity score [12]: 0
- drug sensitivity score [13]: 0
- drug sensitivity score [14]: 0
- drug sensitivity score [15]: 0

Compound: Cc1cc(Cn2cnc3c2C[C@@H](C(=O)O)N(C(=O)C(c2ccccc2)c2ccccc2)C3)ccc1N(C)C
- cell viability ([1]; 1 nM): 96.5%
- cell viability ([1]; 10 nM): 90.4%
- cell viability ([1]; 100 nM): 99.3%
- cell viability ([1]; 1000 nM): 96.5%
- cell viability ([1]; 10000 nM): 103%
- cell viability ([2]; 1 nM): 87.3%
- cell viability ([2]; 10 nM): 106%
- cell viability ([2]; 100 nM): 103%
- cell viability ([2]; 1000 nM): 98.1%
- cell viability ([2]; 10000 nM): 114%
- cell viability ([3]; 1 nM): 93.3%
- cell viability ([3]; 10 nM): 102%
- cell viability ([3]; 100 nM): 96%
- cell viability ([3]; 1000 nM): 103%
- cell viability ([3]; 10000 nM): 107%
- cell viability ([4]; 1 nM): 91.4%
- cell viability ([4]; 10 nM): 97.9%
- cell viability ([4]; 100 nM): 94.1%
- cell viability ([4]; 1000 nM): 108%
- cell viability ([4]; 10000 nM): 110%
- cell viability ([5]; 1 nM): 101%
- cell viability ([5]; 10 nM): 90.7%
- cell viability ([5]; 100 nM): 105%
- cell viability ([5]; 1000 nM): 99.9%
- cell viability ([5]; 10000 nM): 110%
- relative viability EC50 [6]: > 10 µM
- relative viability EC50 [7]: > 10 µM
- relative viability EC50 [8]: > 10 µM
- relative viability EC50 [9]: > 10 µM
- relative viability EC50 [10]: > 10 µM
- drug sensitivity score [11]: 0
- drug sensitivity score [12]: 0
- drug sensitivity score [13]: 0
- drug sensitivity score [14]: 0
- drug sensitivity score [15]: 0

— the supplement of paper PMC13380429
